One block for each molecule: values may come before it.
What was measured:
[1] = system: db/db mice (idiopathic type II diabetes model mice); test: Efficacy test in db/db mouse model with diabetic nephropathy; type: in vivo; settings: for mALB compared to the model control group / urine albumin-to-creatinine ratio (UACR) compared to the model control group / urine amount compared to the model control group: after 4 weeks of administration, in words; for UACR / Urine creatinine / Urine weight / mALB: db/db mice, 15 mg/kg i.g. once daily, Mean±SEM
Source text: Test Example 2: Efficacy Test in db/db Mouse Model with Diabetic Nephropathy
Thirty db/db mice (idiopathic type II diabetes model mice) were selected and divided into a model control group, a positive control group, and a treatment group, and 10 db/m mice were selected as a control group.
The mice were given the compounds by oral gavage (i.g) once daily over 4 consecutive weeks. The administration information is shown in detail in Table 2.
Urine albumin was used as a main measure. The data obtained were analyzed statistically using EXCEL and IBM SPSS Statistics 22.0.
All metrology data are expressed as Mean±SEM s. The parameters before and after administration were plotted for the different groups of animals using the software Graph Pad Prism 8. Data were analyzed using the statistical software SPSS 22.0. A Levene's test of homogeneity of variance was performed on the parameters. When the variance was homogenous (P≥0.05), the Dunnett's & LSD method from the one-way analysis of variance (ANOVA) was used to compare the differences between the groups. When the variance was not homogenous (P<0.05), the Mann-Whitney U test (the M-W method) from the Kruskal-Wallis H test (the K-W method) was used to compare the differences between the groups. For animal survival, the log-rank test from the product-limit method (the K-M method) was used to compare the differences between the groups.

[2] = Long-term/accelerated stability study (sealed in aluminum foil bags, 25° C./60% RH and 40° C./75% RH); type: physicochemical; settings: for long-term/accelerated stability (conclusion): storage under long-term accelerated conditions for 6 months
[3] = Influencing factor stability study (open containers; light, high temperature, high humidity; 30 days); type: physicochemical
[4] = DVS (dynamic vapor sorption) hygroscopicity test; type: physicochemical
Source text: According to the description of hygroscopicity characteristics and the definitions of hygroscopic weight gains in “General Rule 9103, Guidelines for Hygroscopicity” in the Chinese Pharmacopoeia, Volume IV, 2015 Edition, • deliquescent: sufficient water is absorbed to form a liquid; • extremely hygroscopic: the hygroscopic weight gain is not less than 15%; • hygroscopic: the hygroscopic weight gain is less than 15% but not less than 2%; • slightly hygroscopic: the hygroscopic weight gain is less than 2% but not less than 0.2%; • nonhygroscopic or practically nonhygroscopic: the hygroscopic weight gain is less than 0.2%.
TGA refers to thermogravimetric analysis: The analysis was performed using a METTLER TOLEDO TGA 2 thermogravimetric analyzer, with a temperature ramp rate of 10° C./min, specific temperature ranges shown in corresponding patterns (mostly 30-350° C.), and a nitrogen purge speed of 50 mL/min. DVS refers to dynamic vapor sorption: The analysis was performed using SMS DVS Advantage; at 25° C., the humidity was changed as follows: 50%-95%-0%-95%-50%, in steps of 10% (5% for the last step) (specific humidity ranges are shown in corresponding patterns, and those listed here were used in most cases); the criterion was dm/dt being not greater than 0.002%.

[5] = 4 weeks, ** P<0.01 vs model control group
[6] = sealed aluminum foil bag, 25° C.-60% RH, 1 month
[7] = sealed aluminum foil bag, 25° C.-60% RH, 2 months
[8] = sealed aluminum foil bag, 25° C.-60% RH, 3 months
[9] = sealed aluminum foil bag, 25° C.-60% RH, 6 months
[10] = sealed aluminum foil bag, 40° C.-75% RH, 1 month
[11] = sealed aluminum foil bag, 40° C.-75% RH, 2 months
[12] = sealed aluminum foil bag, 40° C.-75% RH, 3 months
[13] = sealed aluminum foil bag, 40° C.-75% RH, 6 months
[14] = open container, 40° C., 1 month
[15] = open container, 40° C., 14 days
[16] = open container, 60° C., 1 month
[17] = open container, 60° C., 14 days
[18] = open container, 75% RH, 1 month
[19] = open container, 75% RH, 14 days
[20] = open container, 92.5% RH, 1 month
[21] = open container, 92.5% RH, 7 days
[22] = open container, 92.5% RH, 14 days
[23] = open container, light exposure (4500 Lux), 1 month
[24] = open container, light exposure (4500 Lux), 7 days
[25] = open container, light exposure (4500 Lux), 14 days
[26] = accelerated experimental conditions, 70% RH
[27] = normal storage conditions, 25° C. and 60% RH
[28] = 25° C.-60% RH, sealed aluminum foil bag, 1 month
[29] = 25° C.-60% RH, sealed aluminum foil bag, 2 months
[30] = 25° C.-60% RH, sealed aluminum foil bag, 3 months
[31] = 25° C.-60% RH, sealed aluminum foil bag, 6 months
[32] = 40° C.-75% RH, sealed aluminum foil bag, 1 month
[33] = 40° C.-75% RH, sealed aluminum foil bag, 2 months
[34] = 40° C.-75% RH, sealed aluminum foil bag, 3 months
[35] = 40° C.-75% RH, sealed aluminum foil bag, 6 months

SMILES: [2H]C([2H])([2H])Oc1cc(C#N)ccc1[C@@H]1C(C(N)=O)=C(C)Nc2c(C)cnc(OCC)c21 [Compound 1]
mALB compared to the model control group [1]: tended to be lower
urine albumin-to-creatinine ratio (UACR) compared to the model control group [1]: statistically significantly smaller
urine amount compared to the model control group [1]: tended to be lower
UACR ([1]; 0 weeks): 5039.91 ± 334.27 µg/mg
Urine creatinine ([1]; 0 weeks): 0.40 ± 0.01 μmol/24 h
Urine weight ([1]; 0 weeks): 2.72 ± 0.14 mL
mALB ([1]; 0 weeks): 224.72 ± 13.19 μg/24 h
Urine creatinine ([1]; 4 weeks): 2.23 ± 0.39 μmol/24 h
Urine weight ([1]; 4 weeks): 10.41 ± 2.29 mL
mALB ([1]; 4 weeks): 870.27 ± 189.40 μg/24 h
UACR [1, 5]: 3301.13 ± 330.31** μg/mg

SMILES: CCOc1ncc(C)c2c1[C@H](c1ccc(C#N)cc1OC)C(C(N)=O)=C(C)N2 [Finerenone, reference compound]
mALB compared to the model control group [1]: tended to be lower
urine albumin-to-creatinine ratio (UACR) compared to the model control group [1]: decreased somewhat but is not significantly different
urine amount compared to the model control group [1]: tended to be lower
UACR ([1]; 0 weeks): 5538.19 ± 342.61 µg/mg
Urine creatinine ([1]; 0 weeks): 0.37 ± 0.02 μmol/24 h
Urine weight ([1]; 0 weeks): 2.86 ± 0.17 mL
mALB ([1]; 0 weeks): 226.68 ± 13.90 μg/24 h
Urine creatinine ([1]; 4 weeks): 2.11 ± 0.44 μmol/24 h
Urine weight ([1]; 4 weeks): 11.96 ± 2.89 mL
mALB ([1]; 4 weeks): 1,013.76 ± 245.40 μg/24 h
UACR [1, 5]: 4294.14 ± 464.95 µg/mg

Crystal form ([2]; 0 days): Crystal form A
Purity ([2]; 0 days): 99.7%
Crystal form [2, 6]: No change
Purity [2, 6]: 99.7%
Crystal form [2, 7]: No change
Purity [2, 7]: 99.7%
Crystal form [2, 8]: No change
Purity [2, 8]: 99.7%
Crystal form [2, 9]: No change
Purity [2, 9]: 99.7%
Crystal form [2, 10]: No change
Purity [2, 10]: 99.7%
Crystal form [2, 11]: No change
Purity [2, 11]: 99.6%
Crystal form [2, 12]: No change
Purity [2, 12]: 99.6%
Crystal form [2, 13]: No change
Purity [2, 13]: 99.5%
long-term/accelerated stability (conclusion) [2]: good physical and chemical stability
Crystal form ([3]; 0 days): Crystal form A
Purity ([3]; 0 days): 99.7%
Crystal form [3, 14]: No change
Purity [3, 14]: 99.4%
Crystal form ([3]; open container, 40° C., 7 days): No change
Purity ([3]; open container, 40° C., 7 days): 99.6%
Crystal form [3, 15]: No change
Purity [3, 15]: 99.6%
Crystal form [3, 16]: No change
Purity [3, 16]: 99.4%
Crystal form ([3]; open container, 60° C., 7 days): No change
Purity ([3]; open container, 60° C., 7 days): 99.7%
Crystal form [3, 17]: No change
Purity [3, 17]: 99.6%
Crystal form [3, 18]: No change
Purity [3, 18]: 99.7%
Crystal form ([3]; open container, 75% RH, 7 days): No change
Purity ([3]; open container, 75% RH, 7 days): 99.6%
Crystal form [3, 19]: No change
Purity [3, 19]: 99.7%
Crystal form [3, 20]: No change
Purity [3, 20]: 99.7%
Crystal form [3, 21]: No change
Purity [3, 21]: 99.6%
Crystal form [3, 22]: No change
Purity [3, 22]: 99.7%
Crystal form [3, 23]: No change
Purity [3, 23]: 97.6%
Crystal form [3, 24]: No change
Purity [3, 24]: 99.4%
Crystal form [3, 25]: No change
Purity [3, 25]: 99.1%
stability in the influencing factor experiment (conclusion) ([3]; under other conditions (40° C., 60° C., 75% RH, 92.5% RH)): stable
stability in the influencing factor experiment (conclusion) ([3]; under the light exposure condition): degraded
hygroscopic weight gain [4, 26]: about 0.7%
crystal form re-identified after the DVS test [4]: did not change
hygroscopic weight gain ([4]; extreme conditions, 90% RH): about 1.5%
hygroscopic weight gain [4, 27]: about 0.5%
SMILES: [2H]C([2H])([2H])Oc1cc(C#N)ccc1[C@@H]1C(C(N)=O)=C(C)Nc2c(C)cnc(OCC)c21 [crystal form A]

Purity (%) ([2]; 0 days (initial)): 99.8%
Crystal form [2, 28]: No change
Purity (%) [2, 28]: 99.3%
Crystal form [2, 29]: No change
Purity (%) [2, 29]: 99.3%
Crystal form [2, 30]: No change
Purity (%) [2, 30]: 99.3%
Crystal form [2, 31]: No change
Purity (%) [2, 31]: 99.3%
Crystal form [2, 32]: No change
Purity (%) [2, 32]: 99.2%
Crystal form [2, 33]: No change
Purity (%) [2, 33]: 98.9%
Crystal form [2, 34]: No change
Purity (%) [2, 34]: 98.8%
Crystal form [2, 35]: No change
Purity (%) [2, 35]: 98.8%
long-term/accelerated stability (conclusion) [2]: good physical and chemical stability
hygroscopic weight gain [4, 26]: about 13.7%
crystal form re-identified after the DVS test [4]: did not change
hygroscopic weight gain ([4]; extreme conditions, 90% RH): about 37.5%
hygroscopic weight gain [4, 27]: about 3.6%
SMILES: Cl.[2H]C([2H])([2H])Oc1cc(C#N)ccc1[C@@H]1C(C(N)=O)=C(C)Nc2c(C)cnc(OCC)c21 [crystal form I of hydrochloride]

Purity (%) ([2]; 0 days (initial)): 99.6%
Crystal form [2, 28]: No change
Purity (%) [2, 28]: 99.8%
Crystal form [2, 29]: No change
Purity (%) [2, 29]: 99.8%
Crystal form [2, 30]: No change
Purity (%) [2, 30]: 99.8%
Crystal form [2, 31]: No change
Purity (%) [2, 31]: 99.6%
Crystal form [2, 32]: No change
Purity (%) [2, 32]: 99.6%
Crystal form [2, 33]: No change
Purity (%) [2, 33]: 99.5%
Crystal form [2, 34]: No change
Purity (%) [2, 34]: 99.3%
Crystal form [2, 35]: No change
Purity (%) [2, 35]: 98.8%
long-term/accelerated stability (conclusion) [2]: good physical and chemical stability
Crystal form ([3]; 0 days): Crystal form α of maleate
Purity ([3]; 0 days): 99.6%
stability in the influencing factor experiments (conclusion) ([3]; at a high temperature): slightly degraded
Crystal form [3, 14]: No change
Purity [3, 14]: 97.4%
Crystal form ([3]; open container, 40° C., 7 days): No change
Purity ([3]; open container, 40° C., 7 days): 98.9%
Crystal form [3, 15]: No change
Purity [3, 15]: 98.4%
Crystal form [3, 16]: No change
Purity [3, 16]: 92.2%
Crystal form ([3]; open container, 60° C., 7 days): No change
Purity ([3]; open container, 60° C., 7 days): 98.6%
Crystal form [3, 17]: No change
Purity [3, 17]: 97.0%
Crystal form [3, 18]: No change
Purity [3, 18]: 99.8%
Crystal form ([3]; open container, 75% RH, 7 days): No change
Purity ([3]; open container, 75% RH, 7 days): 99.8%
Crystal form [3, 19]: No change
Purity [3, 19]: 99.8%
Crystal form [3, 20]: No change
Purity [3, 20]: 99.8%
Crystal form [3, 21]: No change
Purity [3, 21]: 99.8%
Crystal form [3, 22]: No change
Purity [3, 22]: 99.8%
Crystal form [3, 23]: No change
Purity [3, 23]: 98.2%
Crystal form [3, 24]: No change
Purity [3, 24]: 99.2%
Crystal form [3, 25]: No change
Purity [3, 25]: 98.7%
SMILES: O=C(O)/C=C\C(=O)O.[2H]C([2H])([2H])Oc1cc(C#N)ccc1[C@@H]1C(C(N)=O)=C(C)Nc2c(C)cnc(OCC)c21 [crystal form α of maleate]

Source: US20260265249A1, “PHARMACEUTICALLY ACCEPTABLE SALT AND CRYSTAL FORM OF 1,4-DIHYDRO-1,6-NAPHTHYRIDINE AMIDE COMPOUND AND PREPARATION METHOD THEREFOR” (JIANGSU HENGRUI PHARMACEUTICALS CO., LTD., priority 2023, published 2026)
